Where a name gives a salt, the structure may show the parent alone. Read-outs that look alike come from different tables or passages of the source.
Columns and labels:
Assay type in all cases: cell-based
[1] = test system: add-A6 riboswitch; assay: cells; details: add-A6 riboswitch; Prestwick library compounds at 100 μM; HEK 293
From the text: (§1) Riboswitches were constructed as described in PCT/US2016/016234 (in particular Examples 3 to 6), incorporated herein by reference. A truncated human beta-globin intron sequence was synthesized and inserted in the coding sequence of a firefly luciferase gene. A mutant human DHFR exon 2 was synthesized and inserted in the middle of this truncated beta-globin intron sequence using Golden gate cloning strategy. Aptamers including xpt-G/A^1, ydhl-G/A^2, yxj^3, add^4, gdg6-G/A^5 (citations for the aptamers are incorporated herein by reference) were synthesized as oligonucleotides (“oligos”) with 4 nucleotide overhang at the 5′ end that are complementary to two different BsaI sites individually (IDT), annealed and ligated to BsaI-digested mDHFR-Luci-acceptor vector.
(§2) 3.5×10^4 HEK 293 cells were plated in a 96-well flat bottom plate the day before transfection. Plasmid DNA (500 ng) was added to a tube or a 96-well U-bottom plate. Separately, TransIT-293 reagent (Mirus; 1.4 μL) was added to 50 μL Opti-mem I media (Life Technologies), and allowed to sit for 5 minutes at room temperature (RT). Then, 50 μL of this diluted transfection reagent was added to the DNA, mixed, and incubated at RT for 20 min. Finally, 7 μL of this solution was added to a well of cells in the 96-well plate.
(§3) 24 hours after media change, plates were removed from the incubator, and equilibrated to RT for several minutes on a lab bench, then aspirated. Glo-lysis buffer (Promega, 100 μL, RT) was added, and the plates maintained at RT for at least 5 minutes. Then, the well contents were mixed by 50 μL trituration, and 20 μL of each sample was mixed with 20 μL of bright-glo reagent (Promega) that had been diluted to 10% in glo-lysis buffer. 96 wells were spaced on an opaque white 384-well plate. Following a 5 min incubation at RT, luminescence was measured using a Tecan machine with 500 mSec read time. The luciferase activity was expressed as mean relative light unit (RLU)±S.D., and fold induction was calculated as the luciferase activity obtained with guanine treatment divided by luciferase activity obtained without guanine treatment.

[2] = test system: xpt-G17 riboswitch; assay: Luciferase reporter assay, xpt-G17 riboswitch, transfected HEK 293 cells; details: for fold induction at 100 µM: HEK293, xpt-G17 riboswitch; for response of guanine riboswitch xpt-G17 to compound (FIG. 1e): Prestwick library at 100 μM
From the text: (§4) A truncated human beta-globin intron sequence was synthesized and inserted in the coding sequence of a firefly luciferase gene. A mutant human DHFR exon 2 was synthesized and inserted in the middle of this truncated beta-globin intron sequence using Golden gate cloning strategy. Aptamers including xpt-G/A^1, ydhl-G/A^2, yxj^3, add^4, gdg6-G/A^5 (citations for the aptamers are incorporated herein by reference) were synthesized as oligonucleotides (“oligos”) with 4 nucleotide overhang at the 5′ end that are complementary to two different BsaI sites individually (IDT), annealed and ligated to BsaI-digested mDHFR-Luci-acceptor vector.
as §2, §3

[3] = test system: add-G6 riboswitch; assay: cells; details: for fold induction at 100 µM: Homo sapiens
From the text: as §4
as §2, with “Separately, TransIT-293 reagent (Mirus; 1.4 μL) was added to 50 μL Opti-mem I media (Life Technologies), and allowed to sit for 5 minutes at room temperature (RT).” left out
as §3, with “The luciferase activity was expressed as mean relative light unit (RLU)±S.D., and fold induction was calculated as the luciferase activity obtained with guanine treatment divided by luciferase activity obtained without guanine treatment.” left out

[4] = test system: ydhl-G8 riboswitch; assay: Luciferase reporter assay, ydhl-G8 riboswitch, transfected HEK 293 cells; details: for fold induction at 100 µM: Homo sapiens
From the text: as §4
as §2, with “Separately, TransIT-293 reagent (Mirus; 1.4 μL) was added to 50 μL Opti-mem I media (Life Technologies), and allowed to sit for 5 minutes at room temperature (RT).” left out
as §3

[5] = test system: gdg6-G8 riboswitch; assay: Luciferase reporter assay, gdg6-G8 riboswitch, transfected HEK 293 cells; details: gdg6-G8 riboswitch, Prestwick library compounds at 100 μM, HEK 293; for fold induction at 100 µM: Homo sapiens, HEK293
From the text: as §1, §2, §3

[6] = test system: gdg6-A8 riboswitch; assay: Luciferase reporter assay, gdg6-A8 riboswitch, transfected HEK 293 cells; details: for fold induction at 100 µM: Homo sapiens, HEK293
From the text: as §1, §2, §3

[7] = Homo sapiens, Prestwick library compounds at 100 μM, HEK 293, preliminary screen
[8] = HEK293, read-out: Fold Induction of luciferase activity
[9] = add-G6 riboswitch, Prestwick library compounds at 100 μM, HEK 293
[10] = gdg6-A8 riboswitch, Prestwick library compounds at 100 μM, HEK 293
[11] = HEK293, add-G6 riboswitch, Prestwick library compounds at 100 μM, HEK 293, read-out: Fold Induction of luciferase activity

With Deptropine citrate the “Fold Induction of luciferase activity” value [1] was 3.3 fold.
For `Nc1ncnc2c1ncn2[C@@H]1O[C@H](COP(=O)(O)O)[C@@H](O)[C@H]1O.O` [Adenosine 5′-monophosphate monohydrate], the fold induction at 100 µM [2, 7] was 28.4, the “response of guanine riboswitch xpt-G17 to compound (FIG. 1e)” value (“response of guanine riboswitch xpt-G17” below) ([2]; preliminary screen) was “responded” and the fold induction at 100 µM [3, 8] was 9.4. For the same compound, the fold induction at 100 µM [4, 8] was 5.9.
`CC(C)(C)NC[C@H](O)COc1ccccc1C1CCCC1` [Penbutolol sulfate] gave a fold induction at 100 µM [5] of 3.3.
In the case of Avermectin B1, the “Fold Induction of luciferase activity” value [3, 9] is reported as 11.8 fold.
Work on `CCCCNc1ccc(C(=O)OCCN(C)C)cc1` [Tetracaine hydrochloride] yielded a fold induction at 100 µM [4, 8] of 3.6.
`CN/C(=N/CCSCc1nc[nH]c1C)NC#N` [Cimetidine] was tested, and the fold induction at 100 µM [6, 10] was 3.
`CN1CCc2cccc3c2[C@H]1Cc1ccc(O)c(O)c1-3.CN1CCc2cccc3c2[C@H]1Cc1ccc(O)c(O)c1-3.Cl.Cl.O` [R(−)Apomorphine hydrochloride hemihydrate] was tested, and the “Fold Induction of luciferase activity” value [3, 9] was 3.4 fold.
Compound `Fc1ccc(C(c2ccc(F)cc2)N2CCN(C/C=C/c3ccccc3)CC2)cc1` [Flunarizine dihydrochloride] has a fold induction at 100 µM [3, 11] of 4.7.
`Clc1ccc(C(Cn2ccnc2)OCc2csc3c(Cl)cccc23)c(Cl)c1` (centres unmarked) [Sertaconazole Nitrate] gave a fold induction at 100 µM [3, 11] of 6.5.
With `CNCCCC1c2ccccc2C=Cc2ccccc21` [Protriptyline hydrochloride] the fold induction at 100 µM [3, 11] was 5.
`NC(=NCc1ccccc1)NC(=O)c1nc(Cl)c(N)nc1N` [Benzamil hydrochloride] was tested, and the fold induction at 100 µM [3, 11] was 3.
`O=C(Nc1ccccc1)OCC(CN1CCCCC1)OC(=O)Nc1ccccc1` (centres unmarked) [Diperodon hydrochloride] was tested, and the fold induction at 100 µM [6, 10] was 3.
In the case of Tyloxapol, the “Fold Induction of luciferase activity” value ([2]; 100 µM) is reported as 16.2 fold and the “response of guanine riboswitch xpt-G17” value ([2]; preliminary screen) is reported as “responded”.
`C#C[C@]1(O)CC[C@H]2[C@@H]3CCC4=CCCC[C@@H]4[C@H]3CC[C@@]21C` [Lynestrenol] showed a fold induction at 100 µM [3, 11] of 3.8.
Compound `COc1ccc2[nH]c([S+]([O-])Cc3ncc(C)c(OC)c3C)nc2n1` (centres unmarked) [Tenatoprazole] has a fold induction at 100 µM [2, 7] of 3.2.
With `[H]/N=C(/N)NS(=O)(=O)c1ccc(N)cc1` [Sulfaguanidine] the fold induction at 100 µM [4, 8] was 13.9.
`CC[C@@]1(O)C(=O)OCc2c1cc1n(c2=O)Cc2cc3ccccc3nc2-1` [Camptothecine (S, +)] was tested, and the “Fold Induction of luciferase activity” value [3, 9] was 5.7 fold.
Work on `CN1CCCC(n2nc(Cc3ccc(Cl)cc3)c3ccccc3c2=O)CC1` (centres unmarked) [Azelastine hydrochloride] yielded a fold induction at 100 µM ([4]; HEK293, ydhl-G8 riboswitch, Prestwick library compounds at 100 μM, HEK 293, read-out: Fold Induction of luciferase activity) of 3.
For `CCC(=O)O[C@H]1CC[C@H]2[C@@H]3CCC4=CC(=O)CC[C@]4(C)[C@H]3CC[C@]12C` [Testosterone propionate], the fold induction at 100 µM [2, 7] was 29, the “response of guanine riboswitch xpt-G17” value ([2]; preliminary screen) was “responded” and the fold induction at 100 µM [3, 8] was 8.8.
`O=C(CCCCCCC(=O)Nc1ccccc1)NO` [Vorinostat] showed a fold induction at 100 µM [6, 10] of 6.4, a fold induction at 100 µM [5] of 10.2 and a fold induction at 100 µM [3, 11] of 3.6. It also gave a fold induction at 100 µM [4, 8] of 3.
`C[C@]12CC[C@@H]3c4ccc(O)cc4CC[C@H]3[C@@H]1C[C@@H](O)[C@@H]2O` [Estriol] gave a fold induction at 100 µM [5] of 4.3.
`O=C(COc1ccccc1)Nc1nc2nc[nH]c2c(=O)[nH]1` [N2-Phenoxyacetyl guanine] showed a fold induction at 500 µM ([2]; Homo sapiens, HEK293, 24 h, xpt-G17 construct, 500 μM concentration, FIG. 1c, 1d, read-out: fold induction of luciferase activity by guanine analogs (N2 compounds)) of 1300.
With `CNc1ncnc2c1ncn2[C@@H]1O[C@H](CO)[C@@H](O)[C@H]1O` [N6-methyladenosine] the fold induction at 100 µM [2, 7] was 30.7, the “response of guanine riboswitch xpt-G17” value ([2]; preliminary screen) was “responded” and the fold induction at 100 µM [3, 11] was 20.8. For the same compound, the fold induction at 100 µM [4, 8] was 10.7.
`Clc1cc(Cl)c(OCC#CI)cc1Cl` [Haloprogin] showed a fold induction at 100 µM [2, 7] of 5.1 and a fold induction at 100 µM [3, 11] of 5.9.
In the case of `CC(=O)O[C@]1(C(C)=O)CC[C@H]2[C@@H]3C=C(C)C4=CC(=O)CC[C@@H]4[C@H]3CC[C@@]21C` [Nomegestrol acetate], the fold induction at 100 µM [3, 11] is reported as 3.5.
In the case of Methotrimeprazine maleate salt, the “Fold Induction of luciferase activity” value ([6]; 100 µM) is reported as 5.0 fold.
With Meclocycline sulfosalicylate the “Fold Induction of luciferase activity” value [3, 9] was 3.4 fold.
In the case of `NC(=O)c1ccc[n+]([C@@H]2O[C@H](COP(=O)([O-])OP(=O)(O)OC[C@H]3O[C@@H](n4cnc5c(N)ncnc54)[C@H](O)[C@@H]3O)[C@@H](O)[C@H]2O)c1` [Nadide], the fold induction at 100 µM [2, 7] is reported as about 40, the “response of guanine riboswitch xpt-G17” value ([2]; preliminary screen) is reported as “responded” and the “Fold Induction of luciferase activity” value ([2]; xpt-G17 riboswitch, Prestwick library compounds at 100 μM, HEK 293, preliminary screen, 100 µM) is reported as 40.9 fold. It also gave a fold induction at 100 µM [3, 11] of 30.8 and a fold induction at 100 µM [4, 8] of 11.7.
For `C[C@@H]1[C@H](O)[C@@H](C)/C=C/C=C/C=C/C=C/C=C/C=C/C=C/[C@H](O[C@@H]2O[C@H](C)[C@@H](O)[C@H](N)[C@@H]2O)C[C@@H]2O[C@](O)(C[C@@H](O)C[C@@H](O)[C@H](O)CC[C@@H](O)C[C@@H](O)CC(=O)O[C@H]1C)C[C@H](O)[C@H]2C(=O)O` [Amphotericin B], the “response of guanine riboswitch xpt-G17” value ([2]; preliminary screen) was “responded”, the “Fold Induction of luciferase activity” value ([2]; xpt-G17 riboswitch, Prestwick library compounds at 100 μM, HEK 293, preliminary screen) was 21.5 fold and the “Fold Induction of luciferase activity” value [5] was 3.8 fold. For the same compound, the “Fold Induction of luciferase activity” value [3, 9] was 10.7 fold and the “Fold Induction of luciferase activity” value ([4]; ydhl-G8 riboswitch, Prestwick library compounds at 100 μM, HEK 293) was 6.5 fold.
With `C/C=C(/C(=C/C)c1ccc(O)cc1)c1ccc(O)cc1` [Dienestrol] the fold induction at 100 µM [6, 10] was 4.3.
Work on `CN(C)CCOC1=Cc2ccccc2Sc2ccc(Cl)cc21` [Zotepine] yielded a fold induction at 100 µM [2, 7] of 4.3.
Compound `O=C(Nc1ccc([N+](=O)[O-])cc1Cl)c1cc(Cl)ccc1O` [Niclosamide] has a fold induction at 100 µM [3, 11] of 3.
`C#C[C@]1(O)CC[C@H]2[C@@H]3CCC4=Cc5oncc5C[C@]4(C)[C@H]3CC[C@@]21C` [Danazol] gave a fold induction at 100 µM [3, 11] of 3.7.
In the case of `CC(=O)O[C@]1(C(C)=O)CC[C@H]2[C@@H]3C=C(Cl)C4=CC(=O)CC[C@]4(C)[C@H]3CC[C@@]21C` [Chlormadinone acetate], the fold induction at 100 µM [2, 7] is reported as 10.3, the “response of guanine riboswitch xpt-G17” value ([2]; preliminary screen) is reported as “responded” and the fold induction at 100 µM [3, 11] is reported as 26.1. The fold induction at 100 µM [4, 8] was 10.4.
`O=C(OCCOCCO)c1ccccc1Nc1cccc(C(F)(F)F)c1` [Etofenamate] showed a fold induction at 100 µM [2, 7] of 7.5, a fold induction at 100 µM [3, 11] of 5.1 and a fold induction at 100 µM [4, 8] of 4.8.
For `CC(C)COCC(CN(Cc1ccccc1)c1ccccc1)N1CCCC1` (centres unmarked) [Bepridil hydrochloride], the fold induction at 100 µM [3, 11] was 4.4.
For `CC(=O)[C@H]1CC[C@H]2[C@@H]3CCC4=CC(=O)CC[C@]4(C)[C@H]3CC[C@]12C` [Progesterone], the fold induction at 100 µM [2, 7] was 12, the “response of guanine riboswitch xpt-G17” value ([2]; preliminary screen) was “responded” and the fold induction at 100 µM [3, 11] was 6.
`Nc1nc2nc[nH]c2c(=S)[nH]1` [Thioguanine] was tested, and the “response of guanine riboswitch xpt-G17” value ([2]; preliminary screen) was “responded”.
`COC(=O)Nc1nc2ccc(SC(C)C)cc2[nH]1` [Methiazole] was tested, and the “Fold Induction of luciferase activity” value [6, 10] was 3.8 fold and the “Fold Induction of luciferase activity” value [5] was 3.3 fold.

Reference: patent publication US11371077B2, “High throughput cell-based screening for aptamers” (MeiraGTx UK II Limited, priority 2016, dated 2022)
